Reference: article PMC3517478 (BMC Neurology, 2012)
Substitutions are numbered along the chain they refer to. Values joined by “and” are separate entries in the source; they are usually repeats but may differ in a detail not shown here. Equal values may be shown once.

Legend:
Experiment in all cases: Whole-cell patch-clamp, positive allosteric modulation of glycine (EC20) induced currents
Type in all cases: cell-based
Set-up in all cases: expressed in transfected cells; host or cells: HEK 293 (transient, electroporation; pcDNA1amp vector)
[1] = target: T1, human α1R271K-GlyR expressed in HEK 293 cells (Homo sapiens, UniProt P23415, R299K); conditions: R271K
T1 sequence (P23415 29-457 R299K): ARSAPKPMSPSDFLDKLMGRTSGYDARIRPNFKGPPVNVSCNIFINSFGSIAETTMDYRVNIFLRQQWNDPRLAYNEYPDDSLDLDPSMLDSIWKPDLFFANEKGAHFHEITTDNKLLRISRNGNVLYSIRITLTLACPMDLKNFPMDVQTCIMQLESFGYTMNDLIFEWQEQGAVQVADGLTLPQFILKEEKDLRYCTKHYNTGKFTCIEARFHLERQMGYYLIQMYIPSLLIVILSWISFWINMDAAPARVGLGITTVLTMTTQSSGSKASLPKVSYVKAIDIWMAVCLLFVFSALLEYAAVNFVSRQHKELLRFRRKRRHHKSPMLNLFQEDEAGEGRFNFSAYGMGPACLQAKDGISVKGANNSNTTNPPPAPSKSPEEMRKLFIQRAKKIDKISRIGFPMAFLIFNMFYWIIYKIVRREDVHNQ
Protocol: (§1) Drug-containing vials were vigorously vortexed for 30min.
(§2) A new cell was used for each protocol and at least four different experiments were performed for each condition. The concentration of the diluent EtOH corresponding to the highest drug concentration used was 17150 μM.
(§3) Currents were filtered at 2 kHz.
(§4) Currents were normalized to their own maximum response.

[2] = target: T2, human α1R271L-GlyR expressed in HEK 293 cells (Homo sapiens, UniProt P23415, R299L); conditions: R271L
T2 sequence (P23415 29-457 R299L): T1 sequence (P23415 29-457 R299K) with K271L
Protocol: as §1, §2, §3, §4

[3] = target: T3, human α1R271Q-GlyR expressed in HEK 293 cells (Homo sapiens, UniProt P23415, R299Q); conditions: R271Q
T3 sequence (P23415 29-457 R299Q): T1 sequence (P23415 29-457 R299K) with K271Q
Protocol: as §1, §2, §3, §4

[4] = target: T4, human α1S267I-GlyR expressed in HEK 293 cells (Homo sapiens, UniProt P23415, S295I); conditions: S267I
T4 sequence (P23415 29-457 S295I): T1 sequence (P23415 29-457 R299K) with S267I, K271R
Protocol: as §1, §2, §3, §4

## 4-chloro-2,6-dimethylphenol [4-chloropropofol]
[1]; EC20 glycine 100 μM
  positive allosteric modulation nH ± SEM: 0.3 ± 0.1
[1]; co-applied with sub-saturating (EC20) glycine 100 μM, read-out: positive allosteric modulation EC50 ± SEM
  EC50: 6 ± 2.3 µM
[1]; maximal positive allosteric modulation, EC20 glycine 100 μM
  positive allosteric modulation, potentiation [% of peak current amplitude] ± SEM: 231 ± 174%
[2]; EC20 glycine 30 mM
  positive allosteric modulation nH ± SEM: 0.7 ± 0.3
[2]; co-applied with sub-saturating (EC20) glycine 30 mM, read-out: positive allosteric modulation EC50 ± SEM
  EC50: 100 ± 200 nM
[2]; maximal positive allosteric modulation, EC20 glycine 30 mM
  positive allosteric modulation, potentiation [% of peak current amplitude] ± SEM: 153 ± 46%
[3]; EC20 glycine 10 mM
  positive allosteric modulation nH ± SEM: 0.9 ± 1.3
[3]; co-applied with sub-saturating (EC20) glycine 10 mM, read-out: positive allosteric modulation EC50 ± SEM
  EC50: 1300 ± 600 nM
[3]; maximal positive allosteric modulation, EC20 glycine 10 mM
  positive allosteric modulation, potentiation [% of peak current amplitude] ± SEM: 260 ± 52%
[4]; EC20 glycine 30 μM
  positive allosteric modulation nH ± SEM: 0.7 ± 0.3
[4]; co-applied with sub-saturating (EC20) glycine 30 μM, read-out: positive allosteric modulation EC50 ± SEM
  EC50: 55 µM and 55.1 µM
[4]; maximal positive allosteric modulation, EC20 glycine 30 μM
  positive allosteric modulation, potentiation [% of peak current amplitude] ± SEM: 128 ± 14%
